Experimental data from patent US10725043B2, “Three-dimensional fibroblast aggregate and in vitro 3D skin dermis model comprising same” (S-BIOMEDICS, priority 2015, dated 2020).

Key:
MMP1 [1] = assay: MMP1 secretion (ELISA) in two-dimensionally cultured, UVB-irradiated fibroblasts treated with MMP inhibitors; format: cell-based, human; settings: for secreted amount of MMP1 relative to the control group: 2D fibroblasts, UVB 20 mJ/cm^2, 2 days, FIG. 17; for decrease of MMP1 in 2D cells in comparison with the 3D cell cluster: 2D UVB fibroblasts versus 3D cell cluster
Experimental: As a control group for the 3D fibroblast cluster and for the comparison of the inhibitory effect of MMP inhibitors using the two-dimensionally cultured fibroblasts, fibroblasts irradiated with ultraviolet B (UVB) were used. In detail, fibroblasts that were suspended in high-concentration glucose DMEM were seeded onto each well of a tissue culture treated 6-well plate at a concentration of 2.5×10^5 cells/cm^2, and then, cultured in a stationary incubator at a temperature of 37° C. for 1 day. Next, a washing process was performed thereon three times by using PBS, a serum-free MEM medium was added thereto, and the fibroblasts were cultured in a stationary incubator at a temperature of 37° C. for 1 hour. After a washing process was performed thereon three times by using PBS, to induce overexpression of MMP1, UVB (20 mJ/cm^2) was irradiated thereto. Following UV irradiation, the resulting fibroblasts were inoculated with various concentrations of retinoic acid (2, 10, 40 mM), abietic acid (20, 100, 400 mM), and TGF-b1 (1, 5, 20, ng/ml) that were diluted in a fibroblast growth medium (FGM, Lonza Company). The inoculated fibroblasts were then additionally cultured in a stationary incubator at a temperature of 37° C. for 2 days. The culture broth was recovered therefrom, and was subjected to measurement of secretion of MMP1. Through the measurement, the culture broth was quantified by using the ELISA kit (R&D Company), wherein a method of using the kit was proceeded according to the supplier's protocol.

MMP1 [2] = assay: MMP1 secretion (ELISA) in 3D fibroblast cluster treated with MMP inhibitors; format: cell-based, human; settings: retinoic acid 10 mM, abietic acid 100 mM, TGF-b1 5 ng/ml, cultured 2 and 4 days, FIG. 16
Experimental: To prepare an in vitro 3D artificial dermis model, fibroblasts were first cultured. In detail, human dermal fibroblasts were cultured in high glucose Dulbecco's modified Eagle's medium (DMEM, Welgene, Daegu, South Korea) by using a tissue culture flask under conditions of 37° C., 5% CO2, and 95% O2 atmosphere. Human dermal fibroblasts of 5 passages were used for all experiments.
The fibroblasts were seeded onto the culture container, thereby preparing a 3D fibroblast cluster. In detail, fibroblasts were seeded onto the 96-well NTCP containing fibroblast growth medium (FGM, Lonza) at a concentration of 1.25×10^5 cells/cm^2 per well, and cultured at a temperature of 37° C. The fibroblasts were cultured in a 2D manner on a surface of the culture container, and separated from the surface. Such separated or delocalized 2D fibroblast cluster was then continuously cultured while floating in the culture container, and within 24 hours, a 3D fibroblast cluster was formed spontaneously. The formed 3D fibroblast cluster was collected on the 1st day (Day 1), 3rd day (Day 3), and 5th day (Day 5) of the culture. […] Hereinafter, the 3D fibroblast cluster was represented by ‘3DCM’.
In detail, the 3D fibroblast cluster of the culture at Day 1 prepared according to Example 2(1) was inoculated with retinoic acid (10 mM), abietic acid (100 mM), transforming growth factor-b1 (TGF-b1) (5 ng/ml) that were diluted in a […] (FGM, Lonza Company). The inoculated 3D fibroblast cluster was then cultured in a stationary incubator at a temperature of 37° C. for 2 and 4 days, separately. The culture broth was recovered therefrom, and was subjected to measurement of secretion of MMP1. Through the measurement, the culture broth was quantified by using the ELISA kit (R&D Company), wherein a method of using the kit was proceeded according to the supplier's protocol.

[3] = retinoic acid 2, 10, TGF-b1 1, 5, 20 ng/ml

CC(C)C1=CC2=CC[C@@H]3[C@](C)(CCC[C@@]3(C)C(=O)O)[C@H]2CC1 [abietic acid]
secreted amount of MMP1 relative to the control group (MMP1 [1]; abietic acid 20 mM): approximately reduced to half
secreted amount of MMP1 relative to the control group (MMP1 [1]; abietic acid at least 100 mM): about 2%
secretion levels of MMP1 relative to the control group (MMP1 [2]): ~81%

CC1=C(/C=C/C(C)=C/C=C/C(C)=C/C(=O)O)C(C)(C)CCC1 [retinoic acid]
decrease of MMP1 in 2D cells in comparison with the 3D cell cluster (MMP1 [1]): about 2.7 times
secreted amount of MMP1 relative to the control group (MMP1 [1]; [3]): about 30%
secretion levels of MMP1 relative to the control group (MMP1 [2]): about 80%

transforming growth factor-b1 [TGF-b1]
decrease of MMP1 in 2D cells in comparison with the 3D cell cluster (MMP1 [1]): 1.7 to 2.4 times
secreted amount of MMP1 relative to the control group (MMP1 [1]; [3]): 25-35%
secretion levels of MMP1 relative to the control group (MMP1 [2]): about 60%
